What was measured:
[1] = test system: GCK (recombinant GST-GCK); settings: cited from earlier work
[2] = target: T1, recombinant human GST-GCK (Homo sapiens, UniProt P35557); type: biochemical; settings: 4 nM GCK, 37.5 mM glucose, fit accounting for substrate inhibition, mean ± SD; read-out: ATP Km
T1 construct: GST (glutathione-S-transferase); made in house
T1 sequence (P35557 1-465): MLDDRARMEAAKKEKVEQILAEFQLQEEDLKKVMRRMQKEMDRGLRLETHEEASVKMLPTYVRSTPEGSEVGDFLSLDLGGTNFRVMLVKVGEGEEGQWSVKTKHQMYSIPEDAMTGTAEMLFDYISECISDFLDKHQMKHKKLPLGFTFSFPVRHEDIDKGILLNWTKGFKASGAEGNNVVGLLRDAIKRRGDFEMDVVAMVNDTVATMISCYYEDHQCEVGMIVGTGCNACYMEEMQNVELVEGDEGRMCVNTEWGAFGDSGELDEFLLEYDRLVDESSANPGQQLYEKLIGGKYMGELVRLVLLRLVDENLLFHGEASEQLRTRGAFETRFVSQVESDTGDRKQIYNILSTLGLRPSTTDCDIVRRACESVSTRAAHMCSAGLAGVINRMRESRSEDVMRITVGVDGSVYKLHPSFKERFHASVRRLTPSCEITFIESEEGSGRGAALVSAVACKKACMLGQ
Description: The ATP Km for GCK was determined by fluorescent monitoring of NADH oxidation using a dual-coupling system whereby generation of ADP by GCK was coupled to oxidation of NADH via PK and LDH (Figure S2A) [37]. The final reaction contained 4 nM GCK, glucose in five-fold excess of the calculated glucose S0.5 (37.5 mM), and ATP concentrations ranging from 0 to 2 mM. The reaction was initiated by addition of ATP and read immediately, then every 10 seconds for 5 minutes. Each ATP concentration was tested in quadruplicate. The initial slopes (v0) for each concentration were determined by linear regression (GraphPad Prism, GraphPad Software, San Diego, CA, USA), and then v0 was plotted against ATP concentration (Figure S2B).
(A) Reaction scheme of PK/LDH dual-coupled assay. The reaction included 4 nM GCK. (B) Reaction progress over the first 60 seconds was monitored by the loss of NADH fluorescence at 450 nm using a ViewLux Microplate Imager and results analyzed by linear regression. Resultant slopes from regression were plotted and the curve fit using nonlinear regression accounting for substrate inhibition in GraphPad Prism to give a best-fit Km value.

[3] = target: T1, recombinant human GST-GCK; assay: GCK glucose S0.5 and Hill coefficient by luminescent ADP-Glo assay; type: biochemical; settings: 4 nM GCK, 4 mM ATP, 45 minutes
Description: The glucose S0.5 and Hill coefficient for GCK were calculated using a luminescent assay measuring the production of ADP by GCK (ADP-Glo™ Kinase Assay, Promega Corporation, Madison, WI, USA; see below). Luminescence was measured at 18 glucose concentrations from 0.1 to 100 mM (two separate experiments; each n = 8 for each concentration).
The assay included 4 nM GCK and 4 mM ATP and was terminated after 45 minutes. Each data point is mean ± SEM (n = 8). Curves were fit using nonlinear regression with the allosteric sigmoidal option in GraphPad Prism to determine the S0.5 and Hill coefficient.

[4] = test system: cryopreserved pooled male Sprague-Dawley rat hepatocytes; assay: GCK translocation in cryopreserved rat hepatocytes (high-content imaging); type: cell-based; settings: 2 hours
Description: Plateable cryopreserved pooled male Sprague-Dawley rat hepatocytes (lot number NPD) were thawed and plated (40,000 cells/well) in Biocoat black/clear collagen-coated 96-well plates (BD Biosciences, San Jose, CA, USA) in InVitroGRO™ CP Rat medium supplemented with Torpedo™ Antibiotic Mix (BioreclamationIVT). After hepatocyte attachment, media was changed to InVitroGRO™ HI Rat medium with Torpedo™ Antibiotic Mix.
Hepatocytes were fixed in 4% PFA for 15 minutes. PFA was then removed and cells were washed twice in Dulbecco’s phosphate-buffered saline (DPBS) containing 0.2% Triton-X and then permeabilized for 10 minutes with DPBS/0.2% Triton-X. Cells were then treated for 30 minutes with Odyssey protein blocking buffer (Li-cor Biosciences, Lincoln, NE, USA) before addition of a mouse monoclonal IgG2a GKRP antibody [GCKR (A-8); Santa Cruz Biotechnology, Inc., Santa Cruz, CA, USA]. The antibody (200 µg/ml) was diluted (1∶50) in protein blocking buffer and incubated with cells for 120 minutes. Cells were then washed (4×5 minutes) in PBS/0.1% Tween-20 before addition of protein blocking buffer containing Alexa Fluor® 647 Goat Anti-Mouse IgG (H+L) (Invitrogen; 1∶500 dilution) and rabbit polyclonal GCK antibody [1∶30 dilution; GCK (H-88) 200 µg/ml; Santa Cruz Biotechnology]. After 60 minutes, cells were washed with PBS/0.1% Tween-20 (4×5 minutes). […]

[5] = target: T2, GCK-GKRP interaction (recombinant human GST-GCK and FLAG-GKRP) (Homo sapiens, UniProt P35557+Q14397); assay: HTRF assay of the GCK-GKRP protein-protein interaction; type: binding; settings: 5 nM GCK, 5 nM GKRP, 2 µM S6P, mean ± SD; read-out: IC50 (inhibition of GCK-GKRP interaction, HTRF signal)
T2 construct: made in house
T2 sequence (P35557 1-465): T1 sequence (P35557 1-465)
T2 sequence (Q14397 1-625): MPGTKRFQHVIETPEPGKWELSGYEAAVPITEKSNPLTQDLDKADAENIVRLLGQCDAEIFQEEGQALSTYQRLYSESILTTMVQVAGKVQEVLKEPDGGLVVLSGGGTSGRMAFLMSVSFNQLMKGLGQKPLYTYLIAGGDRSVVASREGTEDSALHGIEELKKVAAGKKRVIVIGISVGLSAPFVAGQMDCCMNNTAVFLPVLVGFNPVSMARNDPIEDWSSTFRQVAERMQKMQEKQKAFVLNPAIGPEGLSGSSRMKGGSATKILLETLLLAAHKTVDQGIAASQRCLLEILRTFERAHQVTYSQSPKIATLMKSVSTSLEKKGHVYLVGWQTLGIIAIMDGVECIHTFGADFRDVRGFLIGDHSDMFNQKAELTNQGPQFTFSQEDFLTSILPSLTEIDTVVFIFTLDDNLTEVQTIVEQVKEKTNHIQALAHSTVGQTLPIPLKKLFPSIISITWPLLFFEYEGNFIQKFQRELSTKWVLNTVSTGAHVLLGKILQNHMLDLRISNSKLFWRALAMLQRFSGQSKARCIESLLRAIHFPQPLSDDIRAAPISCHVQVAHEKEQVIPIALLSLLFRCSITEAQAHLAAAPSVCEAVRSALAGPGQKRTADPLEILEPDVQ
Description: Homogeneous time-resolved fluorescence (HTRF) technology (Cisbio Bioassays, Bedford, MA, USA) was utilized for antibody-based FRET measurement of the GCK-GKRP protein-protein interaction. Recombinant human GST-GCK and FLAG-GKRP were mixed in an HTRF assay buffer containing 2 mM MgCl2, 25 mM KCl, 25 mM HEPES, 1 mM DTT, 0.1% Tween-20, and 0.025% BSA (all buffer components Sigma-Aldrich). The pH was adjusted to 7.1 by drop-wise addition of 10 N NaOH. […] For assays in 1536-well plate format, the two reaction mixes were dispensed using an Aurora Discovery BioRAPTR Flying Reagent Dispenser (BioRAPTR; Beckman Coulter, Inc., Brea, CA, USA) (3 µl/well for protein-containing buffer; 1 µl/well for detection antibodies) into white 1536-well solid-bottom medium binding plates (Greiner Bio-One, Monroe, NC, USA). […] For the LOPAC^1280 library screen, column 1 was all components with DMSO (maximum signal) and column 3 was no GKRP with DMSO (minimum signal). These two control columns were used for data normalization. The final HTS protocol is in Table S1, and the data have been deposited in PubChem (AID 743207).
S6P, F1P, and glucose were dissolved in water; GKAs were dissolved in DMSO.
The assay was validated using a range (0–150 nM) of GCK and GKRP concentrations at manufacturer-recommended detection antibody concentrations ( Figure 2A ). Fluorescence was measured immediately upon mixing, and every 30 minutes thereafter for a total of 240 minutes. The plate was covered and incubated at room temperature throughout the course of the experiment.
The assay was miniaturized to 1536-well plate format and, concurrently, specificity of detection was validated by using known modulators of the GCK-GKRP interaction.
The EC80 value represents a compromise between the desire for large enough signal enhancement and the need to maintain a binding level that is not too saturated so that it can be outcompeted by compounds of interest. Additionally, this approach enables detection of specific competitors of S6P, which would likely be acting on GKRP as desired, and not on GCK. […] Both glucose and GKAs interfere with the binding of GKRP to GCK and decrease GKRP inhibition, [44], [45], while F1P binds to GKRP and is competitive with respect to S6P [46].

[6] = test system: cryopreserved human hepatocytes; assay: GCK translocation in cryopreserved human hepatocytes (GKRP-positive cells); type: cell-based
Description: Plateable cryopreserved human hepatocytes (female, lot number TRZ; male, lot number FOS) were plated at 50,000 cells/well in Biocoat black/clear collagen-coated 96-well plates in InVitroGRO™ CP medium supplemented with Torpedo™ Antibiotic Mix. After hepatocyte attachment, media was changed to InVitroGRO™ HI medium with Torpedo™ Antibiotic Mix.
Hepatocytes were fixed in 4% PFA for 15 minutes. PFA was then removed and cells were washed twice in Dulbecco’s phosphate-buffered saline (DPBS) containing 0.2% Triton-X and then permeabilized for 10 minutes with DPBS/0.2% Triton-X. Cells were then treated for 30 minutes with Odyssey protein blocking buffer (Li-cor Biosciences, Lincoln, NE, USA) before addition of a mouse monoclonal IgG2a GKRP antibody [GCKR (A-8); Santa Cruz Biotechnology, Inc., Santa Cruz, CA, USA]. The antibody (200 µg/ml) was diluted (1∶50) in protein blocking buffer and incubated with cells for 120 minutes. Cells were then washed (4×5 minutes) in PBS/0.1% Tween-20 before addition of protein blocking buffer containing Alexa Fluor® 647 Goat Anti-Mouse IgG (H+L) (Invitrogen; 1∶500 dilution) and rabbit polyclonal GCK antibody [1∶30 dilution; GCK (H-88) 200 µg/ml; Santa Cruz Biotechnology]. After 60 minutes, cells were washed with PBS/0.1% Tween-20 (4×5 minutes). Following a 60-minute incubation with blocking buffer and goat anti-rabbit IgG-HRP (1∶500 dilution; sc-2004; Santa Cruz Biotechnology), cells were washed with PBS/0.1% Tween-20 (4×5 minutes). Fluorescent detection of the HRP-conjugated secondary antibody was enabled using a 10-minute incubation with fluorescein-conjugated tyramide from the Tyramide Signal Amplification kit (PerkinElmer). The tyramide solution was prepared in DMSO (Sigma-Aldrich) according to the manufacturer’s instructions. Cells were then washed (3×5 minutes) with PBS/0.1% Tween-20 before a final five-minute wash with PBS/0.1% Tween-20 containing 0.02 mg/ml Hoechst 33342 Trihydrochloride Trihydrate (Hoechst; Invitrogen) for visualization of nuclei. After Hoechst staining, all cells were then stored in 100 µl DPBS at 4°C. […]

[7] = target: T3, Recombinant glutathione-S-transferase (GST)-tagged human glucokinase (human, UniProt P35557 1-465); assay: AlphaScreen or HTRF; 384-well plate; GST-GCK and FLAG-GKRP each titrated 0-150 nM in solution; anti-GST K (donor) and anti-FLAG XL 665 (acceptor) antibodies; 2 mM MgCl2, 25 mM KCl, 25 mM HEPES, 1 mM DTT, 0.1% Tween-20, 0.025% BSA, pH 7.1; room temperature, read at t = 60 minutes; signal ratio 665 nm/615 nm; settings: both partners purified
T3 construct: glucokinase (GCK), human; also called GCK; GST-GCK; source: prepared as described previously [24], [35]
T3 sequence (looked up): T1 sequence (P35557 1-465)

[8] = target: T3, Recombinant glutathione-S-transferase …; assay: AlphaScreen or HTRF; 1536-well plate, 4 µl final volume; 5 nM GST-GCK and 5 nM FLAG-GKRP in solution, without S6P or with S6P (2 µM for the inhibitor tests); anti-GST K and anti-FLAG XL 665 antibodies; HTRF assay buffer pH 7.1; room temperature, 60 minutes; signal ratio 665 nm/615 nm; settings: both partners purified

## Nc1ncnc2c1ncn2[C@@H]1O[C@H](COP(=O)(O)OP(=O)(O)OP(=O)(O)O)[C@@H](O)[C@H]1O [ATP]
[1]; recombinant GST-GCK, read-out: ATP Km, previously described
  Km: 400 µM
[2]
  Km: 400 ± 110 µM

## OC[C@H]1OC(O)[C@H](O)[C@@H](O)[C@@H]1O (some centres unmarked) [glucose]
[3]; mean ± SD
  Hill coefficient: 1.53±0.1
[3]; mean ± SD across two experiments
  glucose S0.5: 7.5 ± 0.8 mM
[4]; 2.5 mM glucose
  cells with translocated GCK: 25%
[4]; 16.7 mM glucose
  cells with translocated GCK: 84%
[1]
  Hill coefficient, previously reported: 1.6–1.7
  glucose S0.5, previously reported: 7.5 to 10 mM
[5]
  IC50: 16 ± 1.4 mM
[6]; 25 mM glucose compared to 2.5 mM glucose, both lots (TRZ, FOS)
  increase in number of translocation-positive cells: approximately 10%

## OC[C@@H](O)[C@@H](O)[C@H](O)[C@@H](O)CO [sorbitol]
[6]; lot FOS
  GCK translocation response: no translocation was observed
[6]; lot TRZ, 2.5 mM glucose
  GCK translocation response: approximately four-fold

B1: Recombinant FLAG-tagged human glucokinase regulatory protein (natural protein, UniProt Q14397 1-625, looked up)
chain: T2 sequence (Q14397 1-625)
notes: glucokinase regulatory protein (GKRP), encoded by GCKR, human; also called GKRP; FLAG-GKRP; source: prepared as described previously [24], [35]
[7]
  HTRF signal ratio (665 nm/615 nm) at 5.56 nM of both proteins: 1.77
[8]
  HTRF signal ratio (665 nm/615 nm) at 5 nM of both proteins, no S6P: 1.87

— paper PMC3929664, “A Panel of Diverse Assays to Interrogate the Interaction between Glucokinase and Glucokinase Regulatory Protein, Two Vital Proteins in Human Disease” (PLoS ONE, 2014)
